Here are results for one molecule from US9557338B2 (SIGNAL PHARMACEUTICALS, LLC, priority 2012, dated 2017).

Holding throughout (assay type): cell-based
One assay has as its system HT-29. In words: Growth inhibition (cell proliferation assay), HT-29. Particulars: read-out: Compound 1 Growth Inhibition IC50.
For a further assay, the system named is A549. In words: Growth inhibition (cell proliferation assay), A549. Particulars: read-out: Compound 1 Growth Inhibition IC50.
The subject of another assay is Akt(T308). In words: Inhibition of Akt(T308) phosphorylation in cell lines. Conditions: read-out: p-Akt(T308).
Another assay deals with T1, mTORC1 (Homo sapiens, UniProt P42345).
T1 construct: endogenous in cells; host or cells: PC3, A549, HCT116, U-87 MG, MDA-MB-231, NCI-H23, HT-29
Description: Inhibition of mTORC1 measured by phosphorylation of pathway markers (FIG. 1). Particulars: phosphorylation of pathway markers Akt, PRAS40, GSK-3β, p70S6, S6, 4-EBP1. The text has this: The activity of the TORC1 complex can be followed from the phosphorylation status of 4E-BP1(T46), a direct substrate of mTOR kinase and S6RP(S235/S236), a downstream substrate from mTOR. The activity of the TORC2 complex can be followed directly from the phosphorylation status of Akt(S473) and indirectly from the phosphorylation status of AKT substrates, GSK3β(S9) and PRAS40(T246). […] Full activation of Akt requires an additional phosphorylation on T308 that is done by PDK1 and is speculated to be co-dependent with the TORC2 phosphorylation of the Akt(S473).

The test system of a further assay is NCI-H23. Description: Growth inhibition (cell proliferation assay), NCI-H23. Particulars: read-out: Compound 1 Growth Inhibition IC50.
In another assay the test system is Phospho-GSK3β(S9). Description: Luminex multiplex assay, Phospho-GSK3β(S9). In a few lines:
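Cells (PC3; HCT-116, MDA-MB-231 and HT29 with 500 ng/mL recombinant human IGF-I for the final 10 min) treated with compound or rapamycin over a concentration range for 1 h at 37° C, 5% CO2. Lysates read by bead-based Luminex sandwich immunoassay, 3 h at room temperature, RPE anti-rabbit detection, quantified against phosphoprotein standard curves.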

Like-named read-outs stand apart in the source and are kept apart here.

In the case of `CO[C@H]1CC[C@H](N2C(=O)CNc3ncc(-c4ccc(C(C)(C)O)nc4)nc32)CC1` [Compound 1, 7-(6-(2-hydroxypropan-2-yl)pyridin-3-yl)-1-((1r,4r)-4-methoxycyclohexyl)-3,4-dihydropyrazino-[2,3-b]pyrazin-2(1H)-one], the IC50 in the assay on HT-29 was above 20000 nM; with A549 it was 320 nM; with Akt(T308) (A549), 640 nM; in the assay on Akt(T308) (HCT116), 1950 nM; in the assay with Akt(T308) (HT-29) it was 240 nM; in the assay with Akt(T308) (PC3) it was 130 nM. Besides, the IC50 was 260 nM in the assay with Akt(T308) (U-87 MG); 3710 nM in the assay on NCI-H23; 220 nM with Phospho-GSK3β(S9) (HCT116, IGF-I stimulation, read-out: p-GSK3β (S9)); 359 nM in the assay with Phospho-GSK3β(S9) (HCT116 cell line, IGF, read-out: Luminex GSK-3β (IGF)); above 2000 nM in the assay with Phospho-GSK3β(S9) (HT-29, IGF-I stimulation, read-out: p-GSK3β (S9)); above 2000 nM in the assay with Phospho-GSK3β(S9) (NCI-H23, read-out: p-GSK3β (S9)). Besides, the IC50 with Phospho-GSK3β(S9) (PC3, read-out: p-GSK3β (S9)) came out at 230 nM; in the assay with Phospho-GSK3β(S9) (U87MG cell line, read-out: Luminex GSK-3β), 281 nM; in the assay on Phospho-GSK3β(S9) (U-87 MG, read-out: p-GSK3β (S9)) it was 280 nM. Moreover, the “inhibition of mTORC1” value against mTORC1 is “inhibition”.
